Experimental data as given in patent US9226928B2, “Spirocyclic isoxazoline parasiticidal combinations” (Zoetis Services LLC, priority 2012, dated 2016).
Where two headings read alike, the source gives them in different places.

Experiments:
[1] = Combination pharmacokinetics in fed dogs; conditions: dog, in vivo, sampling to 28 days
[2] = system: tick (O. turicata, Zoetis strain); test: In-vitro tick feeding assay; type: cell-based, Ornithodoros turicata; conditions: for MED (lowest dose to cause paralysis ≧50%): at 24, 28, and 72 hours post feeding
[3] = system: Haemonchus contortus L3 susceptible strain; test: In vitro motility assay, H. contortus L3 susceptible strain; type: cell-based
[4] = system: D. immitis (L3 inoculation, adult worm recovery); test: Prevention of heartworm disease in dogs; conditions: in vivo, po
[5] = system: Dirofilaria immitis microfilariae (MF), Michigan strain; test: In vitro motility assay, D. immitis microfilariae
Experimental: Antiparasitic compounds were dissolved in DMSO and were spotted into the well of a 384 well microtiter plate. Nematodes in a buffered solution were added to the plates and motility measured at 96 hours for the H. contortus strains and 72 hours for D. immitis. […] MED was subjective based on visual assessment using light microscopy and was the lowest dose to cause a significant decrease in motility. Concentrations at ½ log below the MED were used alone and in combination and were read on the LemnaTec Scanalyzer to provide a quantitative percent motility compared to the negative control.
Material and method for the Dirofilaria immitis in vitro assay: Dirofilaria immitis MF were purified from microfilaremic canine blood by erythrocyte lysis and filtration and maintained in a cell culture media fortified with fetal bovine serum and antibiotics. […] The motility assessment was performed after 72 hours of incubation at 37° C. and 5% CO2 on a LemnaTec Scanalyzer which determined motility of the MF by image analysis.

flea (C. felis) = test: In-vitro flea feeding assay; type: cell-based, Ctenocephalides felis; conditions: for lowest MED alone (lowest dose to cause mortality ≧50%) / control MED dose levels alone (triple combination assay): compound alone; for lowest MED alone (lowest dose to cause mortality ≧50%): 24 hours blood feeding; for control MED dose levels alone (triple combination assay): controls of the triple combination assay
C. felis fleas = test: Efficacy against fleas in dogs; conditions: all time points (Days 1-35); same groups
Experimental: Each dog was infested with approximately 100 unfed viable adult C. felis fleas on Days −1, 6, 13, 20, 27, and 34. Efficacy was assessed by comb counts of live fleas on Days 1, 7, 14, 21, 28, and 35. Efficacy was determined as the % reduction in geometric mean live flea counts versus placebo.

[6] = minimum efficacious dose, visual motility assessment, 96 hours
[7] = vs untreated control, 96 hours, LemnaTec, moxidectin 0.1 μM, pyrantel 10 μM, Compound A 100 μM, alone or combined
[8] = minimum efficacious dose, visual motility assessment, 72 hours
[9] = vs untreated control, 72 hours, LemnaTec, moxidectin 3.3 μM, pyrantel 33 μM, Compound A 10 μM, alone or combined (triple row prints 100 μM Compound A)

Row | Structure (SMILES) | AUC ([1]; dosed alone: Compound A 2 mg/kg, moxidectin 0.25 μg/kg, pyrantel pamoate 5 mg/kg) [µg·h/mL] | AUC ([1]; the three compounds dosed simultaneously) [µg·h/mL] | MED (lowest dose to cause paralysis ≧50%) [2] [µg/mL] | % Motility [3] [%] | H. contortus L3 susceptible MED [3] [µM] | geometric mean adult D. immitis worm count [4] | % Motility [5] [%] | D. immitis MED [5] [µM] | lowest MED alone (lowest dose to cause mortality ≧50%) (flea (C. felis)) [mM] | control MED dose levels alone (triple combination assay) (flea (C. felis)) [mM] | Percentage reductions in geometric and arithmetic mean live flea counts compared with placebo (C. felis fleas) [%] | H. contortus L3 susceptible MED [3, 6] [µM] | % Motility [3, 7] [%] | D. immitis MED [5, 8] [µM] | % Motility [5, 9] [%] | effect on ticks ([2]; at a rate of 3 or 30 ug/mL) | effect on fleas (flea (C. felis); highest dose tested (300 mM))
1 | CS(=O)(=O)CC(=O)N1CC2(C1)OCc1cc(C3=NO[C@@](c4cc(Cl)c(F)c(Cl)c4)(C(F)(F)F)C3)ccc12 [Compound A, (S)-1-(5′-(5-(3,5-dichloro-4-fluorophenyl)-5-(trifluoromethyl)-4,5-dihydroisoxazol-3-yl)-3′H-spiro[azetidine-3,1′-isobenzofuran]-1-yl)-2-(methylsulfonyl)ethanone] | 202 | 206 | 0.01 | 76.0 | >100 | 30.3 worms recovered from each dog | 50.9 | 33 | 0.0001 | 0.3 | 100 | – | – | – | – | – | –
2 | CO/N=C1\C[C@]2(C[C@@H]3C[C@@H](C/C=C(\C)C[C@@H](C)/C=C/C=C4\CO[C@@H]5[C@H](O)C(C)=C[C@@H](C(=O)O3)[C@]45O)O2)O[C@H](/C(C)=C/C(C)C)[C@H]1C [Moxidectin, moxidectin] | – | – | 0.03 | – | – | – | – | – | 0.01 | 10 | – | 0.3 | 95.0 | 10 | 62.0 | – | –
3 | CN1CCCN=C1/C=C/c1cccs1 [Pyrantel, pyrantel pamoate] | – | – | – | – | – | – | – | – | – | > 300 | – | 33 | 95.6 | 100 | 77.8 | no effect | no effect
